Legend:
[1] = system: CYP1A2; assay: Western blotting of rat liver CYP1A2 after 7-day oral metapristone; format: in vivo
Description: (§1) To further confirm CYP1A2 and CYP3A4 are the primary CYP isoforms that metabolize metapristone, we administered oral metapristone (22.5 and 45 mg/kg/day for 7 days) to male and female rats, respectively, and measured the activity of liver CYP1A2 and CYP3A4 by using the western blotting assay. We selected western blot staining density from the controls as the basis (100%) to compare changes in CYP1A2 and CYP3A4 activity after metapristone treatment.
(§2) The total microsomal protein was extracted from rat livers prepared by diluting liver microsomal suspension with 1 volume of immunoprecipitation assay lysis buffer (150 mM NaCl, 1% NP-40, 0.5% sodium deoxy-cholic acid, 0.1% SDS, and 50 mM Tris-Cl, pH 7.5) for 15 min and then centrifuged at 13,000 rpm 4 °C for 10 min. Aliquots containing 20 µg of protein were separated by SDS-PAGE on a 10% gradient gel (Invitrogen, USA) and transferred to a PVDF membrane that was blocked with 5% non-fat dry milk in Tris-buffered saline with Tween 20 (200 mM Tris–HCl, 1.37 M NaCl, 0.1% Tween 20, pH 7.6) for 1 h. The membrane was then incubated with rabbit anti-rat CYP1A2 polyclonal antibody (1:2000 dilution), rabbit anti-rat CYP3A4 polyclonal antibody (1:1000 dilution) and glyceraldehyde-3-phosphate dehydrogenase (GAPDH) antibody (1:2000 dilution), overnight at 4 °C. After rinsing five times with buffer TBST at room temperature, the membrane was incubated with horseradish peroxidase (HRP)-labeled anti-rabbit immunoglobulin G (IgG) anti-body (Santa Cruz Biotechnology, USA). The immunoreactive bands were visualized using an enhanced chemiluminescence detection system (ChemiDoc™XRS + , Bio-Rad, Hercules, CA, USA) and quantified by using densitometry Image J 1.41 software.

[2] = system: CYP3A4; assay: Western blotting of rat liver CYP3A4 after 7-day oral metapristone; format: in vivo
Description: as §1, §2

[3] = rats, 12.5, 50 and 200 mg/kg/day; only occurred at 200 mg/kg/day; cited from earlier work
[4] = target: human CYP3A4 (Homo sapiens, UniProt P08684); assay: Metapristone metabolism by cDNA-expressed recombinant human CYP3A4; conditions: 9 µM
Description: The reactions of the control groups with control rat liver microsomes (heated to 80 °C for 5 min to inactivate enzymes) to inactivate enzymes or without NADPH were also included. […] The cDNA-expressed recombinant human CYPs were prepared from insect cells transfected with cDNAs encoding for human CYP1A2 or CYP3A4. […] Each reaction was then started by the addition of metapristone (9 µM) with subsequent mixing of each sample by inversion. […] Metapristone were identified by the LC/MS/MS method. Peak areas formed were used for quantitative analyses. Control incubation mixtures included mixtures without inhibitors, and mixtures with untransfected insect cell microsomes used as microsomal control, and mixtures that contained methanol instead of inhibitor (methanol control). Quantitative analyses were performed by comparing the peak areas of the inhibition reactions to their respective methanol controls. The total organic solvent content of the in vitro reaction mixtures was less than 2%.

[5] = female rats, 22.5 mg/kg/day p.o. for 7 days
[6] = female rats, 45 mg/kg/day p.o. for 7 days
[7] = male rats, 22.5 mg/kg/day p.o. for 7 days
[8] = male rats, 45 mg/kg/day p.o. for 7 days

Sequence of human CYP3A4 (P08684 whole entry): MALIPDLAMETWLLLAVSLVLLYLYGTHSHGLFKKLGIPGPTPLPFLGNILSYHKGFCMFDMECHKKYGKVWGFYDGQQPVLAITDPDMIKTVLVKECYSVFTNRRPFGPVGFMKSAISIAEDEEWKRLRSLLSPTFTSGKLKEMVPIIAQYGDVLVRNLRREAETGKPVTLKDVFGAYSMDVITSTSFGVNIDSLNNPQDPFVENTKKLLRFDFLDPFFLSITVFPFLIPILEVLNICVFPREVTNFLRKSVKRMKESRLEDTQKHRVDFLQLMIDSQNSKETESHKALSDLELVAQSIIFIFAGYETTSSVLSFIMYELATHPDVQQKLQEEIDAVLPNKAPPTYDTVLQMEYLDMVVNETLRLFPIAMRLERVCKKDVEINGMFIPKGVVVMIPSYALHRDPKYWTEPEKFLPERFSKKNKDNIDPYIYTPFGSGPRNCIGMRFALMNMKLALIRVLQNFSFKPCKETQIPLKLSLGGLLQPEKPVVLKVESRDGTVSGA

With `CC#C[C@]1(O)CC[C@H]2[C@@H]3CCC4=CC(=O)CCC4=C3[C@@H](c3ccc(NC)cc3)C[C@@]21C` [metapristone, N-monodemethyl mifepristone] the “CYP1A2 western blot staining density relative to controls (100%)” value [1, 5] was 120 ± 16%, the “CYP1A2 western blot staining density relative to controls (100%)” value [1, 6] was 147 ± 21% and the “CYP1A2 western blot staining density relative to controls (100%)” value [1, 7] was 156 ± 19%. The “CYP1A2 western blot staining density relative to controls (100%)” value [1, 8] was 163 ± 12%, the “CYP3A4 western blot staining density relative to controls (100%)” value [2, 5] was 107 ± 13% and the “CYP3A4 western blot staining density relative to controls (100%)” value [2, 6] was 128 ± 12%. The “CYP3A4 western blot staining density relative to controls (100%)” value [2, 7] was 115 ± 14%, the “CYP3A4 western blot staining density relative to controls (100%)” value [2, 8] was 153 ± 17% and the “hepatotoxicity after thirty-day oral administration” value [3] was “reversible hepatotoxicity”. For the same compound, the metapristone remaining ([4]; 120 min incubation with CYP3A4, absence of inhibitor) was 16.3% and the metapristone unchanged ([4]; 120 min incubation with CYP3A4, plus ketoconazole 10 µM) was 72.9%.

— PMC5719405, “Sex-related pharmacokinetic differences and mechanisms of metapristone (RU486 metabolite)” (Scientific Reports, 2017)
